Assay results from patent US12071404B2, “Aza (indole)-, benzothiophene-, and benzofuran-3-sulfonamides” (UCB Pharma GmbH, priority 2016, dated 2024).

Key:
[1] = molecular target: T1, GPR17 (Homo sapiens, UniProt Q13304); test: cAMP accumulation functional assay (HTRF, Schild analysis); format: cell-based; design: host or cells: Flp-In T-REx CHO; conditions: CHO hGPR17 cells, Schild analysis vs MDL29,951, 5 μM forskolin, read-out: cAMP assay pA2 (converted)
How it was run: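 CHO Flp-In T-REx cells with doxycycline-induced human GPR17 were preincubated 30 min at room temperature in HBSS-HEPES pH 7.4 with antagonist. cAMP was then measured by HTRF after 60 min. MDL29,951 pEC50 shifts gave dose ratios, and Schild analysis gave pA2.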

[2] = molecular target: T1, GPR17; test: Calcium mobilization functional assay (GPR17 Ca2+ assay); format: cell-based; design: host or cells: Flp-In T-REx CHO; conditions: CHO hGPR17 cells, inhibition of 50 nM MDL29,951, Calcium 5 dye, FLIPR; read-out: Ca2+ assay pIC50 (converted)
How it was run: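 Flp-In T-REx CHO cells stably expressing human GPR17, doxycycline-induced (1 μg/mL, 16-20 h), loaded 60 min with Calcium 5 dye. Inhibition by varying test-compound concentrations of the 50 nM MDL29,951 agonist response was read by fluorescence over time at room temperature. pIC50 came from 4-parameter logistic fitting.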

T1 sequence (Q13304 whole entry): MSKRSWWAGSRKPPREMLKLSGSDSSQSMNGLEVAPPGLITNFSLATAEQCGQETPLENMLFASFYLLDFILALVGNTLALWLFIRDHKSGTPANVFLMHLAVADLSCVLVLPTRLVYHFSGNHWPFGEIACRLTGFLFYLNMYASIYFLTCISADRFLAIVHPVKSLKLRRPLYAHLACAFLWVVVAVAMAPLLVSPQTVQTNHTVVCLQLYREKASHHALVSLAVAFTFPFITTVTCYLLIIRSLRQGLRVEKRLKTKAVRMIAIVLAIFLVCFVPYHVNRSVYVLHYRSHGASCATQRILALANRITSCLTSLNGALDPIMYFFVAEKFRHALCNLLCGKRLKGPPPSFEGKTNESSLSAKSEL

COc1nc(NS(=O)(=O)c2c[nH]c3c(Br)c(Cl)ccc23)c(F)cc1Cl [Compound I-321, 7-bromo-6-chloro-N-(5-chloro-3-fluoro-6-methoxypyridin-2-yl)-1H-indole-3-sulfonamide]
Kb [1]: < 3.16 nM
IC50 [2]: < 3.16 nM

O=S(=O)(Nc1ccc(F)c2nsnc12)c1c[nH]c2cc(Cl)ccc12 [Compound I-127, 6-chloro-N-(7-fluoro-2,1,3-benzothiadiazol-4-yl)-1H-indole-3-sulfonamide]
Kb [1]: 3.16 to 31.6 nM
IC50 [2]: 3.16 to 31.6 nM

N#Cc1cc(NS(=O)(=O)c2c[nH]c3cc(Cl)ccc23)c2c(c1)OC(F)(F)O2 [Compound I-132, 6-chloro-N-(6-cyano-2,2-difluoro-1,3-benzodioxol-4-yl)-1H-indole-3-sulfonamide]
Kb [1]: 3.16 to 31.6 nM
IC50 [2]: 3.16 to 31.6 nM

CS(=O)(=O)c1ccc2c(S(=O)(=O)Nc3cccc4c3OC(F)(F)O4)c[nH]c2c1 [Compound I-240, N-(2,2-difluoro-1,3-benzodioxol-4-yl)-6-methylsulfonyl-1H-indole-3-sulfonamide]
Kb [1]: > 31.6 nM
IC50 [2]: > 31.6 nM

C=Cc1cc(F)c(NS(=O)(=O)c2c[nH]c3cc(Cl)ccc23)nc1F [Compound I-337, 6-chloro-N-(5-ethenyl-3,6-difluoropyridin-2-yl)-1H-indole-3-sulfonamide]
Kb [1]: < 3.16 nM
IC50 [2]: 3.16 to 31.6 nM

N#CCOc1cc(F)c(NS(=O)(=O)c2c[nH]c3cc(Cl)ccc23)cc1F [Compound I-257, 6-chloro-N-[4-(cyanomethoxy)-2,5-difluorophenyl]-1H-indole-3-sulfonamide]
Kb [1]: < 3.16 nM
IC50 [2]: < 3.16 nM

N#CCc1cc(F)c(NS(=O)(=O)c2c[nH]c3c2ccc2cccnc23)cc1F [Compound I-361, N-[4-(cyanomethyl)-2,5-difluorophenyl]-1H-pyrrolo[3,2-h]quinoline-3-sulfonamide]
Kb [1]: < 3.16 nM
IC50 [2]: < 3.16 nM

N#Cc1ccc(NS(=O)(=O)c2c[nH]c3cc(C4CC4)ccc23)cc1 [Compound I-133, N-(4-cyanophenyl)-6-cyclopropyl-1H-indole-3-sulfonamide]
Kb [1]: 3.16 to 31.6 nM
IC50 [2]: < 3.16 nM

N#Cc1ccc(NS(=O)(=O)c2c[nH]c3cc(Br)ccc23)c(F)c1 [Compound I-114, 6-bromo-N-(4-cyano-2-fluorophenyl)-1H-indole-3-sulfonamide]
Kb [1]: < 3.16 nM
IC50 [2]: < 3.16 nM

N#Cc1ccc(NS(=O)(=O)c2c[nH]c3ncc(I)cc23)cc1 [Compound I-79, N-(4-cyanophenyl)-5-iodo-1H-pyrrolo[2,3-b]pyridine-3-sulfonamide]
Kb [1]: > 31.6 nM
IC50 [2]: 3.16 to 31.6 nM

O=S(=O)(Nc1cc(F)c(Br)cc1F)c1c[nH]c2cc(Cl)ccc12 [Compound I-213, N-(4-bromo-2,5-difluorophenyl)-6-chloro-1H-indole-3-sulfonamide]
Kb [1]: < 3.16 nM
IC50 [2]: < 3.16 nM

N#Cc1ccc(NS(=O)(=O)c2c[nH]c3nc(Br)ccc23)c(F)c1 [Compound I-177, 6-bromo-N-(4-cyano-2-fluorophenyl)-1H-pyrrolo[2,3-b]pyridine-3-sulfonamide]
Kb [1]: < 3.16 nM
IC50 [2]: < 3.16 nM

O=C1OCc2cc(F)c(NS(=O)(=O)c3c[nH]c4nc(Cl)ccc34)cc21 [Compound I-284, 6-chloro-N-(6-fluoro-3-oxo-1,3-dihydro-2-benzofuran-5-yl)-1H-pyrrolo[2,3-b]pyridine-3-sulfonamide]
Kb [1]: > 31.6 nM
IC50 [2]: 3.16 to 31.6 nM

CC1OC(=O)c2cc(NS(=O)(=O)c3c[nH]c4cc(Cl)ccc34)c(F)cc21 (stereo not drawn) [Compound I-327, 6-chloro-N-(6-fluoro-1-methyl-3-oxo-1,3-dihydro-2-benzofuran-5-yl)-1H-indole-3-sulfonamide]
Kb [1]: < 3.16 nM
IC50 [2]: < 3.16 nM

O=S(=O)(Nc1cc(F)c(OCC2CC2)cc1F)c1c[nH]c2cc(Cl)ccc12 [Compound I-260, 6-chloro-N-[4-(cyclopropylmethoxy)-2,5-difluorophenyl]-1H-indole-3-sulfonamide]
Kb [1]: 3.16 to 31.6 nM
IC50 [2]: 3.16 to 31.6 nM

O=C1OCc2ccc(NS(=O)(=O)c3c[nH]c4nc(Br)ccc34)cc21 [Compound I-92, 6-bromo-N-(3-oxo-1,3-dihydro-2-benzofuran-5-yl)-1H-pyrrolo[2,3-b]pyridine-3-sulfonamide]
Kb [1]: > 31.6 nM
IC50 [2]: > 31.6 nM

N#Cc1ccc(NS(=O)(=O)c2coc3cc(Cl)ccc23)cc1 [Compound I-139, 6-chloro-N-(4-cyanophenyl)-1-benzofuran-3-sulfonamide]
Kb [1]: > 31.6 nM
IC50 [2]: 3.16 to 31.6 nM

O=S(=O)(Nc1ccc(F)c2nsnc12)c1c[nH]c2nc(Cl)ccc12 [Compound I-226, 6-chloro-N-(7-fluoro-2,1,3-benzothiadiazol-4-yl)-1H-pyrrolo[2,3-b]pyridine-3-sulfonamide]
Kb [1]: > 31.6 nM
IC50 [2]: > 31.6 nM

O=S(=O)(Nc1ccc(I)cc1F)c1c[nH]c2cc(F)ccc12 [Compound I-49, 6-fluoro-N-(2-fluoro-4-iodophenyl)-1H-indole-3-sulfonamide]
Kb [1]: 3.16 to 31.6 nM
IC50 [2]: > 31.6 nM

O=S(=O)(Nc1cccc2nsnc12)c1c[nH]c2nc(Cl)ccc12 [Compound I-93, N-(2,1,3-benzothiadiazol-4-yl)-6-chloro-1H-pyrrolo[2,3-b]pyridine-3-sulfonamide]
Kb [1]: 3.16 to 31.6 nM
IC50 [2]: 3.16 to 31.6 nM

COc1cc(NS(=O)(=O)c2c[nH]c3cc(Cl)ccc23)c(F)cc1C#N [Compound I-143, 6-chloro-N-(4-cyano-2-fluoro-5-methoxyphenyl)-1H-indole-3-sulfonamide]
Kb [1]: < 3.16 nM
IC50 [2]: < 3.16 nM

O=S(=O)(Nc1cccc2nsnc12)c1c[nH]c2cc(Br)ccc12 [Compound I-110, N-(2,1,3-benzothiadiazol-4-yl)-6-bromo-1H-indole-3-sulfonamide]
Kb [1]: < 3.16 nM
IC50 [2]: < 3.16 nM

O=S(=O)(Nc1cccc2nsnc12)c1c[nH]c2cc(Cl)ccc12 [Compound I-109, N-(2,1,3-benzothiadiazol-4-yl)-6-chloro-1H-indole-3-sulfonamide]
Kb [1]: 3.16 to 31.6 nM
IC50 [2]: < 3.16 nM

O=S(=O)(Nc1ncc(Cl)cc1F)c1c[nH]c2cc(Br)ccc12 [Compound I-290, 6-Bromo-N-(5-chloro-3-fluoropyridin-2-yl)-1H-indole-3-sulfonamide]
Kb [1]: < 3.16 nM
IC50 [2]: < 3.16 nM

O=S(=O)(Nc1cc(F)cc(F)c1Cl)c1c[nH]c2cc(Cl)ccc12 [Compound I-55, 6-chloro-N-(2-chloro-3,5-difluorophenyl)-1H-indole-3-sulfonamide]
Kb [1]: 3.16 to 31.6 nM
IC50 [2]: 3.16 to 31.6 nM

Cc1cc(F)c(NS(=O)(=O)c2c[nH]c3cc(Cl)ccc23)nc1F [Compound I-348, 6-chloro-N-(3,6-difluoro-5-methylpyridin-2-yl)-1H-indole-3-sulfonamide]
Kb [1]: 3.16 to 31.6 nM
IC50 [2]: < 3.16 nM

N#Cc1ccc(NS(=O)(=O)c2c[nH]c3nc(Cl)ccc23)cc1 [Compound I-178, 6-chloro-N-(4-cyanophenyl)-1H-pyrrolo[2,3-b]pyridine-3-sulfonamide]
Kb [1]: 3.16 to 31.6 nM
IC50 [2]: 3.16 to 31.6 nM

O=S(=O)(Nc1cccc2c1OCO2)c1c[nH]c2nc(Br)ccc12 [Compound I-97, N-(1,3-benzodioxol-4-yl)-6-bromo-1H-pyrrolo[2,3-b]pyridine-3-sulfonamide]
Kb [1]: 3.16 to 31.6 nM
IC50 [2]: 3.16 to 31.6 nM

COc1nc(NS(=O)(=O)c2c[nH]c3cc(N=[N+]=[N-])ccc23)c(F)cc1CC#N [Compound I-353, 6-azido-N-[5-(cyanomethyl)-3-fluoro-6-methoxypyridin-2-yl]-1H-indole-3-sulfonamide]
Kb [1]: < 3.16 nM
IC50 [2]: < 3.16 nM

COc1nc(NS(=O)(=O)c2csc3cc(Cl)ccc23)c(F)cc1Cl [Compound I-314, 6-chloro-N-(5-chloro-3-fluoro-6-methoxypyridin-2-yl)-1-benzothiophene-3-sulfonamide]
Kb [1]: 3.16 to 31.6 nM
IC50 [2]: 3.16 to 31.6 nM

COc1ccc2c(S(=O)(=O)Nc3cc(F)c(Br)cc3F)c[nH]c2n1 [Compound I-272, N-(4-bromo-2,5-difluorophenyl)-6-methoxy-1H-pyrrolo[2,3-b]pyridine-3-sulfonamide]
Kb [1]: < 3.16 nM
IC50 [2]: 3.16 to 31.6 nM

O=S(=O)(Nc1cc(F)c(F)cc1F)c1c[nH]c2cc(Cl)ccc12 [Compound I-203, 6-chloro-N-(2,4,5-trifluorophenyl)-1H-indole-3-sulfonamide]
Kb [1]: < 3.16 nM
IC50 [2]: 3.16 to 31.6 nM

CCOCCc1cc(F)c(NS(=O)(=O)c2c[nH]c3cc(Cl)ccc23)nc1F [Compound I-333, 6-chloro-N-[5-(2-ethoxyethyl)-3,6-difluoropyridin-2-yl]-1H-indole-3-sulfonamide]
Kb [1]: < 3.16 nM
IC50 [2]: < 3.16 nM

O=S(=O)(Nc1cccc2c1OCO2)c1c[nH]c2nc(Cl)ccc12 [Compound I-96, N-(1,3-benzodioxol-4-yl)-6-chloro-1H-pyrrolo[2,3-b]pyridine-3-sulfonamide]
Kb [1]: > 31.6 nM
IC50 [2]: 3.16 to 31.6 nM

O=S(=O)(Nc1cc(F)c(F)cc1F)c1c[nH]c2nc(Br)ccc12 [Compound I-95, 6-bromo-N-(2,4,5-trifluorophenyl)-1H-pyrrolo[2,3-b]pyridine-3-sulfonamide]
Kb [1]: 3.16 to 31.6 nM
IC50 [2]: 3.16 to 31.6 nM

O=[N+]([O-])c1ccc(NS(=O)(=O)c2c[nH]c3cc(Cl)ccc23)cc1 [Compound I-39, 6-chloro-N-(4-nitrophenyl)-1H-indole-3-sulfonamide]
Kb [1]: > 31.6 nM
IC50 [2]: 3.16 to 31.6 nM
